Assays:
Assay type in all cases: in vivo
[1] = system: pigweed (Amaranthus retroflexus); assay: Test A postemergence; settings: Amaranthus retroflexus, post-emergence, 240 h, Postemergence, read-out: Pigweed plant response rating (0 to 100 scale)
Procedure, shortened: (§1)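 Treatment is preemergence as a directed soil spray after planting, or postemergence at the one- to two-leaf stage, with test chemical in a non-phytotoxic solvent mixture plus surfactant. Plants stay in the greenhouse about 10 d before visual injury scoring on a 0 to 100 scale versus untreated controls.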

Kochia (Kochia scoparia) [2] = assay: Test A postemergence; settings: Bassia scoparia, post-emergence, 240 h, Postemergence, read-out: Kochia plant response rating (0 to 100 scale)
Procedure, shortened: as §1

corn (Zea mays) = assay: Test A postemergence; settings: Zea mays, post-emergence, 240 h, Postemergence, read-out: Corn plant response rating (0 to 100 scale)
Procedure, shortened: as §1

[3] = system: ragweed (common ragweed, Ambrosia elatior); assay: Test A postemergence; settings: Ambrosia artemisiifolia, post-emergence, 240 h, Postemergence, read-out: Ragweed plant response rating (0 to 100 scale)
Procedure, shortened: as §1

[4] = system: Galium (catchweed bedstraw, Galium aparine); assay: Test A postemergence; settings: Galium, post-emergence, 240 h, Postemergence, read-out: Galium plant response rating (0 to 100 scale)
Procedure, shortened: as §1

[5] = system: barnyardgrass (Echinochloa crus-galli); assay: Test A postemergence; settings: Echinochloa crus-galli, post-emergence, 240 h, Postemergence
Procedure, shortened: as §1

[6] = system: ryegrass, Italian (Italian ryegrass, Lolium multiflorum); assay: Test A postemergence; settings: Lolium multiflorum, post-emergence, 240 h, Postemergence, read-out: Ryegrass, Italian plant response rating (0 to 100 scale)
Procedure, shortened: as §1

[7] = system: blackgrass (Alopecurus myosuroides); assay: Test A postemergence; settings: Alopecurus myosuroides, post-emergence, 240 h, Postemergence, read-out: Blackgrass plant response rating (0 to 100 scale)
Procedure, shortened: as §1

[8] = system: giant foxtail (Setaria faberii); assay: Test A postemergence; settings: Setaria faberi, post-emergence, 240 h, Postemergence, read-out: Foxtail, Giant plant response rating (0 to 100 scale)
Procedure, shortened: as §1

[9] = system: wheat (Triticum aestivum); assay: Test A postemergence; settings: Triticum aestivum, post-emergence, 240 h, Postemergence, read-out: Wheat plant response rating (0 to 100 scale)
Procedure, shortened: as §1

[10] = system: pigweed (Amaranthus retroflexus); assay: Test A preemergence; settings: Amaranthus retroflexus, pre-emergence, 240 h, 0 to 100 scale where 0 is no effect and 100 is complete control, read-out: Pigweed plant response rating
Kochia (Kochia scoparia) [11] = assay: Test A preemergence; settings: Bassia scoparia, pre-emergence, 240 h, 0 to 100 scale where 0 is no effect and 100 is complete control, read-out: Kochia plant response rating
Procedure, shortened: as §1

[12] = system: ragweed (common ragweed, Ambrosia elatior); assay: Test A preemergence; settings: Ambrosia artemisiifolia, pre-emergence, 240 h, 0 to 100 scale where 0 is no effect and 100 is complete control, read-out: Ragweed plant response rating
Procedure, shortened: as §1

[13] = system: barnyardgrass (Echinochloa crus-galli); assay: Test A preemergence; settings: Echinochloa crus-galli, pre-emergence, 240 h, 0 to 100 scale where 0 is no effect and 100 is complete control, read-out: Barnyardgrass plant response rating
Procedure, shortened: as §1

[14] = system: ryegrass, Italian (Italian ryegrass, Lolium multiflorum); assay: Test A preemergence; settings: Lolium multiflorum, pre-emergence, 240 h, 0 to 100 scale where 0 is no effect and 100 is complete control, read-out: Ryegrass, Italian plant response rating
Procedure, shortened: as §1

[15] = system: giant foxtail (Setaria faberii); assay: Test A preemergence; settings: Setaria faberi, pre-emergence, 240 h, 0 to 100 scale where 0 is no effect and 100 is complete control, read-out: Foxtail, Giant plant response rating
Procedure, shortened: as §1

[16] = system: barnyardgrass (Echinochloa crus-galli); assay: Test B flooded paddy test; settings: Echinochloa crus-galli, 250 g ai/ha, Flood; 0 to 100 scale where 0 is no effect and 100 is complete control; read-out: Barnyardgrass plant response rating
Procedure, shortened: (§2)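 Compound goes directly into floodwater once pots are flooded 3 cm above soil, targeting plants at two leaves; the water depth is then held for the test duration. Plants sit 13–15 d in a greenhouse and are rated visually, 100 denoting complete control.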

rice (Oryra sativa) = assay: Test B flooded paddy test; settings: Oryza sativa, 250 g ai/ha, Flood; 0 to 100 scale where 0 is no effect and 100 is complete control; read-out: Rice plant response rating
Procedure, shortened: as §2

[17] = system: sedge, umbrella (small-flower umbrella sedge, Cyperus difformis); assay: Test B flooded paddy test; settings: Cyperus difformis, 250 g ai/ha, Flood; 0 to 100 scale where 0 is no effect and 100 is complete control; read-out: Sedge, Umbrella plant response rating
Procedure, shortened: as §2

[18] = system: ducksalad (Heteranthera limosa); assay: Test B flooded paddy test; settings: Heteranthera limosa, 250 g ai/ha, Flood; 0 to 100 scale where 0 is no effect and 100 is complete control; read-out: Ducksalad plant response rating
Procedure, shortened: as §2

[19] = 125 g ai/ha, visual rating about 10 d after treatment
[20] = 31 g ai/ha, 0 is no effect, 100 is complete control
[21] = 125 g ai/ha, preemergence, visual injury rating, approximately 10 d

CN1C[C@H](c2cccc(C(F)(F)F)c2)[C@@H](C(=O)Nc2ccccc2-n2cccn2)C1=O [Compound 1284]
0%: pest or weed control at 125 g/ha [1, 19] | pest or weed control at 31 g/ha [1, 20] | pest or weed control at 125 g/ha (Kochia (Kochia scoparia) [2]; [19]) | pest or weed control at 31 g/ha (Kochia (Kochia scoparia) [2]; [20]) | plant injury at 125 g/ha (corn (Zea mays); [19]) | plant injury at 31 g/ha (corn (Zea mays); [20]) | pest or weed control at 125 g/ha [3, 19] | pest or weed control at 31 g/ha [3, 20] | pest or weed control at 125 g/ha [4, 19] | pest or weed control at 31 g/ha [4, 20] | pest or weed control at 125 g/ha ([5]; 125 g ai/ha, visual rating about 10 d after treatment, read-out: Barnyardgrass plant response rating (0 to 100 scale, 0 no effect, 100 complete control)) | pest or weed control at 31 g/ha ([5]; 31 g ai/ha, 0 is no effect, 100 is complete control, read-out: Barnyardgrass plant response rating (0 to 100 scale)) | pest or weed control at 125 g/ha [6, 19] | pest or weed control at 31 g/ha [6, 20] | pest or weed control at 125 g/ha [7, 19] | pest or weed control at 31 g/ha [7, 20] | pest or weed control at 125 g/ha [8, 19] | pest or weed control at 31 g/ha [8, 20] | plant injury at 125 g/ha [9, 19] | plant injury at 31 g/ha [9, 20] | pest or weed control at 31 g/ha ([10]; 31 g ai/ha, Preemergence) | pest or weed control at 125 g/ha [10, 21] | pest or weed control at 31 g/ha (Kochia (Kochia scoparia) [11]; 31 g ai/ha, Preemergence) | pest or weed control at 125 g/ha (Kochia (Kochia scoparia) [11]; [21]) | pest or weed control at 31 g/ha ([12]; 31 g ai/ha, Preemergence) | pest or weed control at 125 g/ha [12, 21] | pest or weed control at 31 g/ha ([13]; 31 g ai/ha, Preemergence) | pest or weed control at 125 g/ha [13, 21] | pest or weed control at 31 g/ha ([14]; 31 g ai/ha, Preemergence) | pest or weed control at 125 g/ha [14, 21] | pest or weed control at 31 g/ha ([15]; 31 g ai/ha, Preemergence) | pest or weed control at 125 g/ha [15, 21] | pest or weed control at 250 g/ha [16] | pest or weed control at 250 g/ha (rice (Oryra sativa)) | pest or weed control at 250 g/ha [17] | pest or weed control at 250 g/ha [18]
